For data set [1], the target named is Potassium voltage-gated channel subfamily KQT member 2 (Homo sapiens) (UniProt O43526). In words: Agonist activity at human KCNQ2 expressed in CHO cells assessed as increase in outward current at 10 uM at 50 mV by patch clamp electrophysiology method. The format is cell-based. The conditions noted are these: filed as agonist.
The nature of data set [2]: Lipophilicity, logD of the compound. The format is physicochemical. The conditions noted are these: octanol/water.
Data set [3] deals with T1, Potassium channel subfamily K member 2 (Homo sapiens) (UniProt O95069).
T1 sequence (whole entry): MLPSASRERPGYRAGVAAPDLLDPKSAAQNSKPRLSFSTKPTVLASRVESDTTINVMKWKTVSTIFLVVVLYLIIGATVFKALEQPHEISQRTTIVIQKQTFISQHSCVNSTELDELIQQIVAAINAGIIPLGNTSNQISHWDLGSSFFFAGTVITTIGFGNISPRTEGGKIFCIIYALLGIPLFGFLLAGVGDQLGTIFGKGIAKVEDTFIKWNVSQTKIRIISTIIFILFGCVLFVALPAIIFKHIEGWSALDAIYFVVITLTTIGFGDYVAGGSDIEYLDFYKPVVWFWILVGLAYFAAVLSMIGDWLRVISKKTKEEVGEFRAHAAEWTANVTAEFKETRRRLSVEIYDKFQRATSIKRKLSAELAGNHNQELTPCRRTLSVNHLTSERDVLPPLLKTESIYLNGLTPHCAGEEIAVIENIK
The data set can be described thus: Activation of human TREK-1 expressed in CHO cells at 10 uM in presence of ML335 by patch clamp electrophysiology method. The format is cell-based. The conditions noted are these: filed as activator.

For data set [4], the target named is T2, Potassium voltage-gated channel subfamily KQT member 4 (Homo sapiens, UniProt P56696).
T2 sequence (P56696 whole entry): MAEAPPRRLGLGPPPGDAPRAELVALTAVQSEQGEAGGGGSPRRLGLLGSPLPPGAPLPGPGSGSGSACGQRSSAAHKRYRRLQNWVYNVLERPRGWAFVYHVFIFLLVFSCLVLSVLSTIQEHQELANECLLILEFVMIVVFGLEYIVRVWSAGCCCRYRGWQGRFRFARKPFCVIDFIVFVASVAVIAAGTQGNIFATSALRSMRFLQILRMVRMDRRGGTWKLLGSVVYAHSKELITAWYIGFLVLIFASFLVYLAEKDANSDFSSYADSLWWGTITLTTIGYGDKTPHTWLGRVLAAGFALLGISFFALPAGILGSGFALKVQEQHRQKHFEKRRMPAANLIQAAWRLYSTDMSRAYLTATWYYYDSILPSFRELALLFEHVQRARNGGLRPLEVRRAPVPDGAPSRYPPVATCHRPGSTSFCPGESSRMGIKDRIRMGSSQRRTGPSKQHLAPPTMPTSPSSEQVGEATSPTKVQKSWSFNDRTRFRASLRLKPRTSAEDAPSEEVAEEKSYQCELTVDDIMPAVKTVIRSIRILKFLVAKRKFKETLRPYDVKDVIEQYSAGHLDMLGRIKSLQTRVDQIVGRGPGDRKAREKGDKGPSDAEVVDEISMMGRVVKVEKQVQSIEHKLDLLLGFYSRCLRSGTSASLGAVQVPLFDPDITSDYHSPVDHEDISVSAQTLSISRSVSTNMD
In words: Agonist activity at human KCNQ4 channel expressed in CHO cells assessed as increase in outward current by patch clamp electrophysiology method. The format is cell-based. For orientation: The patch-clamp technique gives a direct electrical read-out from membranes.

The target in data set [5] is Potassium voltage-gated channel subfamily KQT member 5 (Homo sapiens, UniProt Q9NR82). The data set can be described thus: Agonist activity at human KCNQ5 channel expressed in CHO cells assessed as increase in outward current by patch clamp electrophysiology method. The format is cell-based.
Potassium voltage-gated channel subfamily KQT member 5, sequence (Q9NR82 whole entry): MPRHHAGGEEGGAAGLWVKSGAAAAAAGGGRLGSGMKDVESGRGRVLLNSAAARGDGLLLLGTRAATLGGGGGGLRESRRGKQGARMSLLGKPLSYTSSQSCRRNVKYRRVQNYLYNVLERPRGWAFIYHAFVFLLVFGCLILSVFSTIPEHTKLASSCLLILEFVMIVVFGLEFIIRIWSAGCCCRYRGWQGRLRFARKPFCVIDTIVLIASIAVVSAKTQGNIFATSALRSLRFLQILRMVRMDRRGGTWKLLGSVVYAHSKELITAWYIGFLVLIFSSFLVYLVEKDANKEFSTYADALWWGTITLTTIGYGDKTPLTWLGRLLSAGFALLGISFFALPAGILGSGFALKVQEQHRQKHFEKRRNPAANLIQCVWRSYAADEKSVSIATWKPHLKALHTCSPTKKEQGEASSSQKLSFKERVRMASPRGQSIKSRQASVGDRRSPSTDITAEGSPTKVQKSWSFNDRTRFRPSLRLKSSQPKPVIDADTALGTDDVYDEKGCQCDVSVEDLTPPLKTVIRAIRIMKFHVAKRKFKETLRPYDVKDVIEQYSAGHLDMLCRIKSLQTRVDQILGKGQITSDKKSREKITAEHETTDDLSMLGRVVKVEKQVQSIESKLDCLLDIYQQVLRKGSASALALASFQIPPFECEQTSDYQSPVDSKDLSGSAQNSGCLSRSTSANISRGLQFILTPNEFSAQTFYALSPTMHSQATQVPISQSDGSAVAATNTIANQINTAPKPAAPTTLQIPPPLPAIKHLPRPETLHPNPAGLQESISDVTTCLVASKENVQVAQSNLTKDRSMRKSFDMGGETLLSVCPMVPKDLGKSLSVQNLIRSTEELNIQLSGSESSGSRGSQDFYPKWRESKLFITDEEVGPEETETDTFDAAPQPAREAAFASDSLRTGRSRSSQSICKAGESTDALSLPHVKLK

pEC50: −log10 of the molar value. Calls of active or inactive are those of the source. No cut-off for these calls is given here.

Potassium voltage-gated channel subfamily KQT member 2 (Homo sapiens), sequence (O43526 whole entry): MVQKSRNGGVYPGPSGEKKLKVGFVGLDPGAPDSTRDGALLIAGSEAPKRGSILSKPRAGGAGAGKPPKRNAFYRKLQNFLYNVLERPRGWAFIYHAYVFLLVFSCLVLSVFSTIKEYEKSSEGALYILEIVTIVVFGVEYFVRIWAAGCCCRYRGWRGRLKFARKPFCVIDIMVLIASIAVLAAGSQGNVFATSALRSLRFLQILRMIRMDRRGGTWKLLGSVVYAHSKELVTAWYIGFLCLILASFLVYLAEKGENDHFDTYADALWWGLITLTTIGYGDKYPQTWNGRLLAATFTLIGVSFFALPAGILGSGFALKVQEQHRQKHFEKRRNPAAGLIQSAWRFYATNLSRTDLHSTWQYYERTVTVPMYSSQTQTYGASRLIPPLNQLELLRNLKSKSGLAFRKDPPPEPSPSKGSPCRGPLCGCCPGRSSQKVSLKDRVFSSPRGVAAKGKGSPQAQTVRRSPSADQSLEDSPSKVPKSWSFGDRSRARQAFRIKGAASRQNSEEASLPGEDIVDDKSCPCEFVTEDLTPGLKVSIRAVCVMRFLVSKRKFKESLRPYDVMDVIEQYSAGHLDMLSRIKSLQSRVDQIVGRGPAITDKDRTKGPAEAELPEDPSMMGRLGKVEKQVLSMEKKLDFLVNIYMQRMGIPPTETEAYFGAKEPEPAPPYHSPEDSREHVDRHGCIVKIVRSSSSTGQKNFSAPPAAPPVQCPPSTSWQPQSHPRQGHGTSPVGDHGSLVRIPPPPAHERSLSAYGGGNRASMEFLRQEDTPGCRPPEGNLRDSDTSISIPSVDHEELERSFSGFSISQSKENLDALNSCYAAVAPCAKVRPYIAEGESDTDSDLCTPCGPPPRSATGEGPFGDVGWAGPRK

`O=C(Nc1ccc(Cl)nc1)c1ccc(F)cc1`: the result in data set [1] was Active. `Cc1ccc(CSCc2nnc(SCC(=O)Nc3ccc(Br)cc3F)n2C)cc1`: in data set [2], the log distribution coefficient (logD) (as a rule, the decadic logarithm of the distribution of all forms, ionised or not, between an organic phase and buffer at a given pH) turned out to be 4.38.

Turning to `O=C(O)c1ccccc1Nc1ccc(CCc2ccc(Cl)c(Cl)c2)cc1`, in data set [3], the outcome was Active. On to `Cc1ccc(CSCc2nnc(SCC(=O)Nc3ccc(Br)cc3I)n2C)cc1`, for which, in data set [2], the log distribution coefficient (logD) came out at 4.66. The compound `Cc1ccc(CSCc2nnc(SCC(=O)Nc3ccc(Br)cc3Br)n2C)cc1` returned a logD in data set [2] of 4.79. Also, the pEC50 (in general, the EC50 on a negative log10 scale, so that one unit is a factor of ten) is 5.19 in data set [4] and 5.35 in data set [5]. Regarding `c1ccc(-c2nnn[nH]2)c(Nc2cccc3c2CCCC3)c1`, the result in data set [3] was Active.
